Results: USRE33897E, “Synthetic polypeptides and antibodies related to Epstein-Barr virus nuclear antigen” (Scripps Clinic and Research Foundation, priority 1989, dated 1992)
“Also recorded” adds a separate entry of the source. Residues, ends and D or L forms follow the SMILES beside them.

Assays:
[1] = tested on: anti-EBNA antibodies; experiment: ELISA with polypeptide as solid phase antigen, detecting anti-polypeptide antibodies in sera; assay type: binding, human; conditions: for Average titer of Progressive Systemic Schlerosis (PSS) patients to polypeptide compared with normals: high and low serum dilutions; for Reaction of VCA- sera with polypeptide: panel of 19 VCA- sera; for Reactivity of sera of EBV non-immune donors to polypeptide: panel of 27 EBV non-immune (VCA-) donors; for Number of 91 anti-EBNA positive (ACIF) sera positive against polypeptide: sera at 1:20 dilution; for Antibodies binding to polypeptide before and after EBV-induced infectious mononucleosis: sera of two subjects; for Reaction of sera of clinically normal VCA+ individuals with polypeptide: two serum dilutions
Description: A solution containing a substrate for the enzyme label such as hydrogen peroxide for peroxidase and a color-forming dye precursor such as o-phenylenediamine, or p-nitrophenyl phosphate for alkaline phosphatase is thereafter admixed with the solid phase.
(§1) Anti-peptide antibody binding and inhibition studies were carried out by an enzyme-linked immunosorbent assay (ELISA) as described below.
(§2) Briefly, microtiter wells (Costar, #3590, Cambridge, Mass.) were coated with individual polypeptides as antigens by adding 100 microliters (ul) of BBS [10 millimoler (mM) sodium borate (pH 8.3), 150 mM NaCl] containing polypeptide at a concentration of 10 micrograms per milliliter (ug/ml). Contact between the wells and antigen-containing solution was maintained for a predetermined time, typically 15 minutes, and at 20 degrees C., to form an antigen-coated solid phase. The solid and liquid phases were separated and the wells were washed three times with BBS.
Non-specific binding sites were blocked by admixing 200 microliters of 1% bovine serum albumin (BSA) in each well to form another solid-liquid phase admixture, and maintaining that solid-liquid phase admixture for 30 minutes, at 20 degrees C. The phases were separated and excess, unbound BSA was removed by washinq three times with BBS.
[…] Contact between the diluted sera and the antigen-coated solid phase was maintained for a predetermined time such as 1 hour, and at 20 degrees C., for an immunoreactant to form. The solid and liquid phases were separated, and the solid phase; i.e., antigen-coated, immunoreactant-containing wells, was then washed three times with BBS.
The antibodies in human sera that immunoreacted with an adsored polypeptide were detected using an indicating means comprising alkaline phosphatase-conjugated goat anti-human Ig antibody (Tago, Burlington, CA). The antibodies in rabbit sera that immunoreacted with an adsorbed polypeptide were detected using an indicating means comprising alkaline phosphatase-conjugated goat anti-rabbit Ig antibody (Kirkegard & Perry Laboratories, Inc., Gaithersburg, Md.). In either instance, 100 microliters of the indicating antibody diluted 1:300 in BBS were added per well to form a further solid-liquid phase composition. This solidliquid phase composition was maintained for a predetermined time, one hour, for the formation of a reaction product between the human antibodies bound to the solid phase and the indicating means, and at 20 degrees C.

[2] = tested on: EBNA; experiment: Immunoblotting of whole cell extracts with rabbit anti-polypeptide antisera; assay type: binding, Epstein-Barr virus; conditions: for Inhibition of recognition of EBNA by anti-P62 serum: anti-P62 serum 1:10 incubated with 40 ug/ml polypeptide for one hour
Description: Exemplary receptor molecules containing antibody combining sites of this invention raised in rabbits to the polypeptides shown in Table 1 were studied using the immunoblotting procedures of Towbin, et. al., Proc. Natl. Acad. Sci., U.S.A., 76:4350-4354 (1979) and Billings, et. al., Proc. Natl. Acad. Sci., U.S.A., 80:7104-7108 (1983). Further details are provided in the Materials and Methods section (II).
Extracts of EBNA producing and non-producing (control) cells were prepared to determine if receptor molecules of this invention were useful for diagnosing EBNA expression. Cells from cultures described hereinabove were washed in phosphate-buffered saline (PBS; 150 mM NaCl, 10 mM sodium phosphate, pH 7.4) containing 0.2 mM phenylmethylsulfonyl fluoride, swollen for 5 minutes in reticulocyte standard buffer (RSB; 10 mM NaCl, 10 mM Tris-HCl, pH 7.4, 1.5 mM MgCl2, 0.2 mM phenylmethylsulfonyl fluoride), and lysed by sonication in 3-5 volumes of RBS adjusted to 0.2-0.35 molar (M) NaCl. After 30 minutes on ice, the sonicate was centrifuged at 10,000×g for 15 minutes to remove cellular debris.
Cell extracts obtained above were assayed for EBNA using human sera known to contain anti-EBNA antibodies or exemplary receptor molecules of this invention. Tne extracts were either concentrated by precipitation with 2 volumes of ethanol at -20 degrees C. for about 18 hours, and were then dissolved in sample buffer [SB; 10% glycerol, 2% 2-mercaptoethanol, 1% sodium dodecyl sulfate (SDS), 0.002% bromphenol blue, 40 mM Tris-HCl (pH 7.4)] or diluted 1:6 in sample buffer for SDS-polyacrylamide gel electrophoresis (SDS-PAGE). 7.5% Polyacrylamide gels were cast and run according to the procedure of Laemmli, Nature, […] (1970), applying 50 to 200 micorgrams of total protein per lane. […]
Anti-peptide antibodies bound to EBNA protein were detected by reacting the blots with an indicating means. […]

[3] = Circular dichroism spectroscopy of polypeptides in phosphate buffered saline; assay type: physicochemical; conditions: 1 mg/ml
Description: The conformational properties of the polypeptides were investigated to elucidate any secondary structure that might be necessary for polypeptide immunoreaction with human anti-EBNA antibodies. The polypeptides were dissolved at a concentration of 1 mg/ml in phosphate-buffered saline (PBS). Spectra were taken using 1 ml samples in a Cary 61 spectropolarimeter (Cary Instruments, Applied Physics Corp., Monrovia, Calif.) interfaced and automated with a Digital Equipment Corporation 11/02 computer (Digital Equipment Corporation, Maynard, Mass.).

[4] = tested on: rabbit anti-polypeptide antibody to polypeptide P62; experiment: Competition ELISA: rabbit anti-polypeptide P62 antibody binding to solid phase P62; conditions: antibody first incubated with competing polypeptide
Description: as §1, §2
Non-specific binding sites were blocked by admixing 200 microliters of 1% bovine serum albumin (BSA) in each well to form another solid-liquid phase admixture, and maintaining that solid-liquid phase admixture for 30 minutes, at 20 degrees C. […]
The antibodies in human sera that immunoreacted with an adsored polypeptide were detected using an indicating means comprising alkaline phosphatase-conjugated goat anti-human Ig antibody (Tago, Burlington, CA). The antibodies in rabbit sera that immunoreacted with an adsorbed polypeptide were detected using an indicating means comprising alkaline phosphatase-conjugated goat anti-rabbit Ig antibody (Kirkegard & Perry Laboratories, Inc., Gaithersburg, Md.). […]

[5] = serum MV post-mononucleosis, dilution 1:20
[6] = serum MV pre-mononucleosis, dilution 1:20
[7] = serum SB post-mononucleosis, dilution 1:20
[8] = serum SB pre-mononucleosis, dilution 1:20
[9] = serum VCA + Normal 1, dilution 1:20
[10] = serum VCA + Normal 2, dilution 1:20

Row | Structure (SMILES) | Average titer of Progressive Systemic Schlerosis (PSS) patients to polypeptide compared with normals [1] | Time course of anti-P62 antibodies after onset of infectious mononucleosis versus ACIF anti-EBNA titer ([1]; one-half of 8 students (e.g. patient 15)) | Time of detection of antibodies against polypeptide after onset of infectious mononucleosis ([1]; other half of 8 students (e.g. patients 14 and 2)) | Reaction of VCA- sera with polypeptide [1] | Reactivity of sera of EBV non-immune donors to polypeptide [1] | Number of 91 anti-EBNA positive (ACIF) sera positive against polypeptide [1] | Number of 91 EBNA positive sera immunoreacting with polypeptide ([1]; sera at 1:320 dilution) | Antibodies binding to polypeptide before and after EBV-induced infectious mononucleosis [1] | OD405 × 10^3 obtained with patient antibodies to polypeptide [1, 5] [OD405 × 10^3] | OD405 × 10^3 obtained with patient antibodies to polypeptide [1, 6] [OD405 × 10^3] | OD405 × 10^3 obtained with patient antibodies to polypeptide [1, 7] [OD405 × 10^3] | OD405 × 10^3 obtained with patient antibodies to polypeptide [1, 8] [OD405 × 10^3] | OD405 × 10^3 obtained with patient antibodies to polypeptide [1, 9] [OD405 × 10^3] | OD405 × 10^3 obtained with patient antibodies to polypeptide [1, 10] [OD405 × 10^3] | Reaction of sera of clinically normal VCA+ individuals with polypeptide [1] | Inhibition of recognition of EBNA by anti-P62 serum [2] | Conformation indicated by circular dichroism spectrum [3] | OD405 × 10^3 obtained with patient antibodies to polypeptide, average ± one standard deviation ([1]; VCA- Normals (n = 27), dilution 1:20) [OD405 × 10^3] | Inhibition of recognition of EBNA by anti-P60 serum ([2]; anti-P60 serum 1:50 incubated with 40 ug/ml polypeptide for one hour) | Inhibition of binding of anti-polypeptide P62 to solid phase polypeptide P62 [4]
1 | C[C@H](N)C(=O)NCC(=O)N[C@@H](C)C(=O)NCC(=O)NCC(=O)NCC(=O)N[C@@H](C)C(=O)NCC(=O)NCC(=O)N[C@@H](C)C(=O)NCC(=O)N[C@@H](C)C(=O)NCC(=O)NCC(=O)NCC(=O)N[C@@H](C)C(=O)NCC(=O)NCC(=O)N[C@@H](C)C(=O)NCC(=O)O [Polypeptide P62, H-Ala--Gly--Ala--Gly--Gly--Gly--Ala--Gly--Gly--Ala--Gly--Ala--Gly--Gly--Gly--Ala--Gly--Gly--Ala--Gly--OH] (H-AGAGGGAGGAGAGGGAGGAG-OH) | relatively higher average titer | rose in parallel with the corresponding anti-EBNA titer | detected in the first month after the onset of symptoms | None of the VCA- sera were found to react positively | None of tne sera displayed significant reactivity | 91 | 83 | absent before infection, but appeared afterward | 631 | 77 | 514 | 13 | 958 | 819 | all of the VCA+ indiviuals were positive | inhibited | relatively stable secondary structure | – | – | –
2 | C[C@H](NC(=O)CNC(=O)CNC(=O)[C@H](C)NC(=O)CNC(=O)[C@H](C)NC(=O)CNC(=O)CNC(=O)CN)C(=O)NCC(=O)N[C@@H](C)C(=O)NCC(=O)NCC(=O)NCC(=O)NCC(=O)N[C@@H](CCCNC(=N)N)C(=O)O [Polypeptide P60, H--Gly--Gly--Gly--Ala--Gly--Ala--Gly--Gly--Ala--Gly--Ala--Gly--Gly--Gly--Gly--Arg--OH] (H-GGGAGAGGAGAGGGGR-OH) | relatively higher average titer | – | – | None of the VCA- sera were found to react positively | None of tne sera displayed significant reactivity | 91 | – | absent before infection, but appeared afterward | 162 | 72 | 115 | 51 | 154 | 145 | all of the VCA+ indiviuals were positive | inhibited | very similar spectra | 45 ± 18 | innibited | –
3 | CSCC[C@H](NC(=O)[C@@H]1CCCN1C(=O)[C@H](CCCNC(=N)N)NC(=O)[C@H](CCCCN)NC(=O)[C@H](CCC(=O)O)NC(=O)CNC(=O)[C@H](CCCNC(=N)N)NC(=O)CNC(=O)[C@H](CCCNC(=N)N)NC(=O)CNC(=O)[C@H](CCCNC(=N)N)NC(=O)CNC(=O)[C@H](CCCNC(=N)N)NC(=O)[C@H](C)NC(=O)[C@@H](N)CCCNC(=N)N)C(=O)O [Polypeptide P89, H--Arg--Ala--Arg--Gly--Arg--Gly--Arg--Gly--Arg--Gly--Glu--Lys--Arg--Pro--Met--OH] (H-RARGRGRGRGEKRPM-OH) | – | – | – | – | – | – | – | no antibodies were produced | 25 | 29 | 23 | 9 | 23 | 16 | – | – | – | – | – | did not significantly crossreact; also recorded: did not inhibit
